Experimental data as given in patent US20090306159A1, “Inhibition of Intermediate-Conductance Calcium Activated Potassium Channels in the Treatment and/or Prevention of Atherosclerosis” (The Regents of the University, priority 2005, published 2009).

How the values were obtained:
[1] = tested on: human coronary artery smooth muscle cells (HCSMCs); assay: Cell proliferation assay (cell count with hemocytometer) in PDGF-stimulated HCSMCs; assay type: cell-based; settings: for cell number of HCSMCs: 48 hours, n=7
Experimental: (§1) Cell proliferation assays: Cell proliferation assays were performed as previously reported. Briefly, quiescent HCSMCs seeded at a density of 4×10^4/well in 6-well plates were stimulated by 20 ng/mL PDGF in the presence or absence of 10^−7 M TRAM-34, a selective IKCa blocker. Forty eight hours after stimulation, the number of cells was counted with a hemocytometer (MARIENFELD, Lauda-Konigshofen Germany). In another set of experiments, a BrdU cell proliferation assay was also performed with quiescent cells in 96-well plates at a density of 1×10^4/well according to the manufacturer's instructions (Colorimetric Cell Proliferation ELISA, Roche, Penzberg Germany). In this study, BrdU (10^−5 M in medium) was applied 24 hours prior to the measurements.

c-fos = assay: Western blot of c-fos expression in HCSMCs; assay type: cell-based, human; settings: PDGF + TRAM-34
Description: Western blot analysis: Total cell lysates or membrane fractions were harvested and protein samples separated on an electrophoresis gel by SDS-PAGE and then transferred to a PVDF membrane. The gels were stained in Coomassie blue to confirm equal protein loading. Membranes were blocked with 10% nonfat dried milk, blotted with primary antibodies (BKCa α-subunit [Affinity BioReagents], c-fos [Santa Cruz, Inc.] and IKCa) and subsequently probed with a horseradish peroxidase-labeled donkey anti-rabbit antibody (1:5,000˜10,000 [Santa Cruz, Inc.]). The bound antibody was detected by chemiluminescence (ECL Plus, Amersham). The polyclonal primary antibody against human and mouse IKCa was obtained from sera of rabbits immunized using oligopeptides with following amino acids sequences; H-LNASYRSIGALNQVRC-NH2 (S4-5 of human and mouse IKCa).

[2] = tested on: human coronary artery smooth muscle cells (HCSMCs); assay: Transwell cell migration assay in HCSMCs; assay type: cell-based
Experimental: Cell migration assay: A Cell migration assay was carried out with the Transwell system (Corning, Acton, Mass.) as previously reported. Briefly, cells (3×10^5 cells/mL) were seeded onto the upper chamber of Transwells, and the lower chamber was filled with serum-free medium containing 20 ng/ml PDGF. TRAM-34 (10^−8˜10^−7 M) was added to both chambers. After 8-hour stimulation, migrated cells were fixed and stained with the Diff-Quick Stain (IMEB Inc. Chicago, Ill.) and counted under a microscope.

[3] = tested on: human coronary artery smooth muscle cells (HCSMCs); assay: BrdU cell proliferation assay (DNA synthesis) in HCSMCs; assay type: cell-based
Experimental: as §1

[4] = Body weight, heart weight, blood pressure, heart rate, plasma cholesterol and deaths in treated mice; assay type: in vivo, mouse
Experimental: Mouse treatment: C57BL/6J male mice (wild type [WT] n=11 and ApoE deficient type [EKO] n=38, The Jackson Laboratory) were used. […] Littermate war mice were used as the control group in the experiments. Mice were provided diet and water ad libitum and maintained on a 12-hour light/dark cycle. All animal experiments were conducted according to the Guidelines for Animal Experiments at Medical College of Wisconsin.
Hemodynamic analysis of mice: At 16 weeks of age, mice were anesthetized, and right femoral arteries were cannulated for continuous measurement of arterial pressure and heart rate (pressure transducer; Bioresearch Center, Nagoya, Japan) and recorded continuously by computer for 30 min.
Plasma lipid analysis: Plasma was obtained by centrifugation of blood and stored at −80° C. until each assay was performed. Plasma cholesterol levels were analyzed by General Medical Laboratories (Madison, Wis.).

ApoE knockout mice = assay: Development of atherosclerosis in ApoE knockout mice on high-cholesterol diet (long-term IKCa1 blockade); assay type: in vivo, mouse; settings: ApoE KO mice, long-term TRAM-34
Experimental: Mouse treatment: C57BL/6J male mice (wild type [WT] n=11 and ApoE deficient type [EKO] n=38, The Jackson Laboratory) were used. EKO mice were weaned at 4 weeks of age onto a high-cholesterol diet (1.3% cholesterol; TD 96121, Harian/Teklad) and treated with daily subcutaneous injection of TRAM-34 (120 mg/kg/day) or vehicle (peanut oil) for 12 weeks. Littermate war mice were used as the control group in the experiments. Mice were provided diet and water ad libitum and maintained on a 12-hour light/dark cycle. All animal experiments were conducted according to the Guidelines for Animal Experiments at Medical College of Wisconsin.
Histological analysis of atherosclerosis in mouse aortas: Isolation of aortas and quantification of atherosclerosis were performed as previously described. Briefly, aortas (from aortic arch to iliac bifurcation) were opened longitudinally, pinned onto a silicon-coated dish, fixed with 4% paraformaldehyde, and stained in 1.0% (v/w) Sudan III solution (The Science Company, Denver, Colo.). Images were acquired using a digital camera (C-755, Minolta), and the surface area of atherosclerotic lesions was measured as the percentage of total area of the opened aorta using imaging software, MetaMorph (Universal Imaging Corp).

BKCa [5] = target: BKCa (Homo sapiens, UniProt Q12791); assay: Videomicroscopy: vasodilation of human coronary arterioles to BKCa opener; settings: endothelium-denuded human vessels, 3×10^-6 M, n=3
Experimental: (§2) Videomicroscopy: The preparation for videomicroscopy has been previously described. Vasomotor and endothelial function was confirmed by measuring constriction to 50 mM KCl and dilation to acetylcholine (ACh, 10^−4 M, mouse vessels pressurized at 40 mmHg) or to bradykinin (10^−7 mol/L, human vessels at 60 mmHg). Vessels were preconstricted with U46619 (10^−9˜10^−8 M for mouse vessels) or ACh (10^−8˜5×10^−7 M for human vessels) to adjust tone to a level between 30% to 50% of passive diameter. […] In some experiments, endothelial cells (ECs) were denuded.
(§3) Statistical Analysis: All data are expressed as mean±SE. […] Percent dilation was calculated as the percent change from the preconstricted diameter to the passive diameter in Ca^2+-free Krebs containing 10^−4 M papaverine. Percent constriction or basal tone was determined by calculating the percent reduction in the passive diameter. To compare dose-response relationships between treatment groups, a two-way ANOVA supported by a Bonferroni post hoc test was used. Statistical comparisons of maximal percent vasodilation and basal tone under different treatments were performed by paired Student's t test. […] Statistical significance was defined as a value of P<0.05.

BKCa [6] = target: BKCa (Mus musculus, UniProt Q08460); assay: Videomicroscopy: vasodilation of mouse carotid artery segments to BKCa opener; settings: endothelium-denuded carotid artery segments
Experimental: as §2, §3

IKCa mRNA = assay: Real-time RT-PCR of IKCa mRNA in HCSMCs; assay type: cell-based, human; settings: PDGF 20 ng/ml, at 6 h, n=5
Description: (sense) and [NT] (antisense); for [NT] (sense) and [NT] (antisense).

[7] = among the groups (WT, ApoE KO vehicle, ApoE KO TRAM-34)
[8] = long-term treatment, anesthetized mice

Chain of BKCa (Mus musculus, UniProt Q08460) (Q08460 whole entry): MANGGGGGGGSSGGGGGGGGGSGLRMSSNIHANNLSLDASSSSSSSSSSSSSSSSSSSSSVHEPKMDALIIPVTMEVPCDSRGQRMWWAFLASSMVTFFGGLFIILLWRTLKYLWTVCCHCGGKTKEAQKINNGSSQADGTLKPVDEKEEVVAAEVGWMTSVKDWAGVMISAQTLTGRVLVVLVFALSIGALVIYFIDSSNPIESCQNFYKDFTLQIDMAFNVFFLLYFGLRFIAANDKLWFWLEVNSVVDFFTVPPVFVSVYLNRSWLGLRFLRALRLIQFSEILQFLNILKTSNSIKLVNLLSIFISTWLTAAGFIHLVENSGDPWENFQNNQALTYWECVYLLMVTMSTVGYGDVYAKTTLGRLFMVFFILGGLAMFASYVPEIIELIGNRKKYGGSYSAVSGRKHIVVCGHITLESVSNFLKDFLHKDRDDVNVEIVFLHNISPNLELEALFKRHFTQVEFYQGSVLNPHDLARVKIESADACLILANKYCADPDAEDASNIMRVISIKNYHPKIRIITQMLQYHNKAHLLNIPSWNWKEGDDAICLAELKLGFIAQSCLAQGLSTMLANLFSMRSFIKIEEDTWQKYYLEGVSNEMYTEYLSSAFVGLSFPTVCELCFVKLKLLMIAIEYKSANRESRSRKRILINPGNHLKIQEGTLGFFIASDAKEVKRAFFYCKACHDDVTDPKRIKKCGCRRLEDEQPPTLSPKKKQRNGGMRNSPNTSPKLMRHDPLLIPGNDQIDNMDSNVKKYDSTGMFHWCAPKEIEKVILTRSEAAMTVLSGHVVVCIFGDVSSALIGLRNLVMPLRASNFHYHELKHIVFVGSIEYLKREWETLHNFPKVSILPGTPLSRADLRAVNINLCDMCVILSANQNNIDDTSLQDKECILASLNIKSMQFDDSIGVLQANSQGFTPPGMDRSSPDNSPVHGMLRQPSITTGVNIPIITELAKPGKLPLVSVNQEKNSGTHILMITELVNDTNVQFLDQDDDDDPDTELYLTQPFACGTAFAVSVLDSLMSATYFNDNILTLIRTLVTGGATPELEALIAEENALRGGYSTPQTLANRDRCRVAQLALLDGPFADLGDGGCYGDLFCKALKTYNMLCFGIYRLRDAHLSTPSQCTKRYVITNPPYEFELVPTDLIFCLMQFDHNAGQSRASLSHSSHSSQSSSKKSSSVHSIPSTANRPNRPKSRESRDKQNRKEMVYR
Chain of BKCa (Mus musculus, UniProt Q08460) (Q8CAE3 whole entry partner): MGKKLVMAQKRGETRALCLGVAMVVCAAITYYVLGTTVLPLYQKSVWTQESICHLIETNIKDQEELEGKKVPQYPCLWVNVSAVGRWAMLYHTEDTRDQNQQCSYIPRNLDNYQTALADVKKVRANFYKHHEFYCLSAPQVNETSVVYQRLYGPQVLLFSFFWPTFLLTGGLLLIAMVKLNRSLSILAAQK
Chain of BKCa (Homo sapiens, UniProt Q12791) (Q12791 whole entry): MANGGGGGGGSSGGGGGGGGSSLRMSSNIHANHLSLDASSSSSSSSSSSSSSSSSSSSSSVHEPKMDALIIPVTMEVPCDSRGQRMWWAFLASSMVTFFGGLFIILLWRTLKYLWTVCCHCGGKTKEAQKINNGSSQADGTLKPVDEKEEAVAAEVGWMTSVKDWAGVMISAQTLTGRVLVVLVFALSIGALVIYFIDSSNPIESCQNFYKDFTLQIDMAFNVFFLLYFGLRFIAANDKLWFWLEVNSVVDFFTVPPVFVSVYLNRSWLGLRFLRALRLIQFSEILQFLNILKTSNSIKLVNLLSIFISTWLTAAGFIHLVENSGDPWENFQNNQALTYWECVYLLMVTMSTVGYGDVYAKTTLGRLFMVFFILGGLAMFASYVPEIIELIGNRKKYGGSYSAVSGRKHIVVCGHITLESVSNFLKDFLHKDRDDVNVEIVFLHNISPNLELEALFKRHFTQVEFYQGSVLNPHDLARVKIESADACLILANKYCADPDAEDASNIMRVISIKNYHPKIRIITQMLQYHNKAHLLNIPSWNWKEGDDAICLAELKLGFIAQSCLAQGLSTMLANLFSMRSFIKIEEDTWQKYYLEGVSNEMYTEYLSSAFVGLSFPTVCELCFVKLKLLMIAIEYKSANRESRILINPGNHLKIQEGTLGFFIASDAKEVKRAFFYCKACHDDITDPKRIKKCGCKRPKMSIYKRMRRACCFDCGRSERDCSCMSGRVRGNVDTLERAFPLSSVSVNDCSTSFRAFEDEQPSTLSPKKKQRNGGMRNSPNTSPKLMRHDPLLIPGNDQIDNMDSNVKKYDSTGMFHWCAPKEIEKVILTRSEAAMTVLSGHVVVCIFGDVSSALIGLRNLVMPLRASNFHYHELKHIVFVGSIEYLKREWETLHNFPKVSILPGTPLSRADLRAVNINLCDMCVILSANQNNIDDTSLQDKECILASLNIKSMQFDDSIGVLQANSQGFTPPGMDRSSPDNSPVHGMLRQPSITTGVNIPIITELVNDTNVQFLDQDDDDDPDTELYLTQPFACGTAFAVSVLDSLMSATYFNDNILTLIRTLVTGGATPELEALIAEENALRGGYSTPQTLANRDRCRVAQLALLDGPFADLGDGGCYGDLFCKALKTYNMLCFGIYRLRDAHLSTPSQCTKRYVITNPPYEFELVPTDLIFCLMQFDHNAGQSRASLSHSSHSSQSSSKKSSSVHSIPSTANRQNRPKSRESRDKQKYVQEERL
Chain of BKCa (Homo sapiens, UniProt Q12791) (Q16558 whole entry partner): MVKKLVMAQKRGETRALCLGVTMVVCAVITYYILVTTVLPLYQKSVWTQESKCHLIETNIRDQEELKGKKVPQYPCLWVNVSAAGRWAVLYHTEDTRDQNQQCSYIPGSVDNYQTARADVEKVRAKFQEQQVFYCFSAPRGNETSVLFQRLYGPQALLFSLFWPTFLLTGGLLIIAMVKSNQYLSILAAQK

COc1ccc(Cl)cc1C(=O)NCCc1ccc(S(=O)(=O)NC(=O)NC2CCCCC2)cc1 [Glibenclamide, reference compound]
effect on PDGF-induced HCSMC proliferation ([1]; with PDGF, data not shown, n=4): had no effect

Clc1ccccc1C(c1ccccc1)(c1ccccc1)n1cccn1 [TRAM-34, 1-[(2-chlorophenyl)diphenylmethyl]-1H-pyrazole]
PDGF-induced up-regulation of c-fos protein (c-fos): markedly reduced | HCSMC migration ([2]; PDGF + TRAM-34, 8-hour stimulation, n=4): 2392 fold of control | DNA synthesis (BrdU incorporation) ([3]; PDGF + TRAM-34, n=26): 2.2±0.2 fold of control | effect on DNA synthesis ([3]; TRAM alone, no PDGF, n=6): had no effect | deaths during treatment ([4]; 14-week treatment, unknown reasons, same in vehicle group): One mouse | plasma cholesterol levels ([4]; ApoE KO mice, TRAM-34 vs vehicle): no significant difference | body weight [4, 7]: no significant differences | heart weight [4, 7]: no significant differences | blood pressure [4, 8]: unaltered | heart rate [4, 8]: unaltered | cell number of HCSMCs ([1]; PDGF + TRAM-34 at 10^-7 M): 1.1±0.1 fold of control | cell viability ([1]; PDGF+TRAM-34 or TRAM-34 alone, HCSMCs): did not affect cell viability | effect on HCSMC proliferation ([1]; in the absence of PDGF): had no effect | accumulation of macrophages in the plaques (ApoE knockout mice): decreased | nitric oxide-mediated component of endothelium-dependent vasodilation (ApoE knockout mice): restored | plasma level of MCP-1 (ApoE knockout mice): reduced | plasma level of TNF-alpha (ApoE knockout mice): reduced

C=C[C@@]1(C)C=C2CC[C@@H]3[C@](C)(CCC[C@@]3(C)C(=O)O)[C@H]2CC1 [pimaric acid]
vasodilation (BKCa [5]; CAD subjects): 31±3% | vasodilation (BKCa [5]; non-CAD subjects): 56±6% | % max. dilation (BKCa [6]; ApoE KO mice): 9±3% | % max. dilation (BKCa [6]; WT mice, 10^-5 M): 55±10%

platelet-derived growth factor-BB [PDGF]
IKCa mRNA expression, max response (IKCa mRNA): 4.2±1.0 fold | HCSMC migration ([2]; PDGF alone (20 ng/ml), 8-hour stimulation, n=10): 32±4 fold of control | DNA synthesis (BrdU incorporation) ([3]; PDGF alone, n=26): 2.8±0.3 fold of control | cell number of HCSMCs ([1]; PDGF alone (20 ng/mL)): 1.6±0.1 fold of control
